Molecular target: Poly(ADP-ribose) glycohydrolase (Homo sapiens, UniProt Q86W56)
Experiment: Inhibition of human full length PARG using Bt-NAD ribosylated PARP1 substrate after 10 mins by TR-FRET assay

Chain of Poly(ADP-ribose) glycohydrolase (Q86W56 whole entry): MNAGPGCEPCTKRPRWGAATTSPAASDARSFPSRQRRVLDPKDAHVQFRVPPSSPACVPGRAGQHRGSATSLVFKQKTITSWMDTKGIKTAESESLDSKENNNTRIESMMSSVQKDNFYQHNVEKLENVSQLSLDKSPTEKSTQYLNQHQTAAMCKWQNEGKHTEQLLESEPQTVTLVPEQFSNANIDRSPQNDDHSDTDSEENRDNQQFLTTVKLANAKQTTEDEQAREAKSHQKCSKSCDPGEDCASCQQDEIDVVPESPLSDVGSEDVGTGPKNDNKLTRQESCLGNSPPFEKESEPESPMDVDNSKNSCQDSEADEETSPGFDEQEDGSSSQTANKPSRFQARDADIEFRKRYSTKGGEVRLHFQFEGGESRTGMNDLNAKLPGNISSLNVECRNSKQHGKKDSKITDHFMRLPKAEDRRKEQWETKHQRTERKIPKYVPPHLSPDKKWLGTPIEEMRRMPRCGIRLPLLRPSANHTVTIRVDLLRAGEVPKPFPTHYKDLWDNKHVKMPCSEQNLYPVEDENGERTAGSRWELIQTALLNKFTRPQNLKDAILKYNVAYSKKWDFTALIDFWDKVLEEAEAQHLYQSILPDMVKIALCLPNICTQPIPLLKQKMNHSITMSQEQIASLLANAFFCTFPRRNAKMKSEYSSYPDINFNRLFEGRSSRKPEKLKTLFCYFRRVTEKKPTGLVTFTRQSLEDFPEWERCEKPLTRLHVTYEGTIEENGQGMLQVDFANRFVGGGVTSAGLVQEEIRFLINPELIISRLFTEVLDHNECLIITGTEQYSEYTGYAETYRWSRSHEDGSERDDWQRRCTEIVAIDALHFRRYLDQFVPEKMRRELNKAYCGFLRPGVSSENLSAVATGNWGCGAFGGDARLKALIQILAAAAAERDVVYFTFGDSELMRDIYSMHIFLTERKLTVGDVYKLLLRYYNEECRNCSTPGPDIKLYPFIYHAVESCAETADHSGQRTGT

SMILES	EC50 [µM]
Cc1nnsc1Cn1c(=O)c2cc(S(=O)(=O)NC3(C)CC3)ccc2n(C)c1=O	0.88
Cn1nccc1Cn1c(=O)n(C)c(=O)c2cc(S(=O)(=O)NC3(C)CC3)ccc21	1.2
Cn1c(=O)n(Cc2cn[nH]c2)c(=O)c2cc(S(=O)(=O)NC3(C)CC3)ccc21	0.38
Cn1c(=O)n(CC#N)c(=O)c2cc(S(=O)(=O)NC3(C)CC3)ccc21	1.1
Cn1cncc1Cn1c(=O)c2cc(S(=O)(=O)NC3(C)CC3)ccc2n(C)c1=O	3.3
Cc1nnc(Cn2c(=O)c3cc(S(=O)(=O)NC4(C)CC4)ccc3n(C)c2=O)o1	1.8
Cc1cc(Cn2c(=O)n(C)c(=O)c3cc(S(=O)(=O)NC4(C)CC4)ccc32)n(C)n1	0.38
Cc1nc(C)c(Cn2c(=O)c3cc(S(=O)(=O)NC4(C)CC4)ccc3n(C)c2=O)s1	0.91
Cn1c(=O)n(Cc2nccs2)c(=O)c2cc(S(=O)(=O)NC3(C)CC3)ccc21	13
Cn1nnnc1Cn1c(=O)c2cc(S(=O)(=O)NC3(C)CC3)ccc2n(C)c1=O	3
Cc1noc(C)c1Cn1c(=O)c2cc(S(=O)(=O)NC3(C)CC3)ccc2n(C)c1=O	0.62
CCn1c(=O)c2cc(S(=O)(=O)NC3(C)CC3)ccc2n(C)c1=O	4
CCNS(=O)(=O)c1ccc2c(c1)c(=O)n(CC)c(=O)n2CC	140
Cn1nccc1Cn1c(=O)c2cc(S(=O)(=O)NC3(C)CC3)ccc2n(C)c1=O	4.1
Cc1nonc1Cn1c(=O)c2cc(S(=O)(=O)NC3(C)CC3)ccc2n(C)c1=O	2.1
Cc1cc(Cn2c(=O)c3cc(S(=O)(=O)NC4(C)CC4)ccc3n(C)c2=O)[nH]n1	3.2
Cn1c(=O)n(Cc2csnn2)c(=O)c2cc(S(=O)(=O)NC3(C)CC3)ccc21	2.7
C#CCn1c(=O)c2cc(S(=O)(=O)NC3(C)CC3)ccc2n(C)c1=O	3

SMILES	EC50 [µM]
Cc1ncc(Cn2c(=O)c3cc(S(=O)(=O)NC4(C)CC4)ccc3n(C)c2=O)s1	0.48
Cn1c(=O)n(Cc2cncs2)c(=O)c2cc(S(=O)(=O)NC3(C)CC3)ccc21	1.2
Cn1c(=O)n(Cc2cnn(CC#N)c2)c(=O)c2cc(S(=O)(=O)NC3(C)CC3)ccc21	0.37
CCn1cc(Cn2c(=O)c3cc(S(=O)(=O)NC4(C)CC4)ccc3n(C)c2=O)cn1	0.45
Cc1cc(Cn2c(=O)c3cc(S(=O)(=O)NC4(C)CC4)ccc3n(C)c2=O)on1	0.47
Cn1c(=O)n(Cc2cnc[nH]2)c(=O)c2cc(S(=O)(=O)NC3(C)CC3)ccc21	4
Cc1oncc1Cn1c(=O)c2cc(S(=O)(=O)NC3(C)CC3)ccc2n(C)c1=O	0.77
Cn1c(=O)n(CC2CC2)c(=O)c2cc(S(=O)(=O)NC3(C)CC3)ccc21	4.6
Cn1c(=O)n(Cc2cocn2)c(=O)c2cc(S(=O)(=O)NC3(C)CC3)ccc21	21
Cc1nc(C)c(Cn2c(=O)n(C)c(=O)c3cc(S(=O)(=O)NC4(C)CC4)ccc32)s1	0.18
Cn1c(=O)n(Cc2cnc(N)s2)c(=O)c2cc(S(=O)(=O)NC3(C)CC3)ccc21	0.48
Cc1nnc(Cn2c(=O)c3cc(S(=O)(=O)NC4(C)CC4)ccc3n(C)c2=O)s1	0.47
Cc1nc(Cn2c(=O)c3cc(S(=O)(=O)NC4(C)CC4)ccc3n(C)c2=O)cs1	10
Cc1cc(Cn2c(=O)c3cc(S(=O)(=O)NC4(C)CC4)ccc3n(C)c2=O)no1	5.2
Cn1c(=O)n(CC2CCCCC2)c(=O)c2cc(S(=O)(=O)NC3(C)CC3)ccc21	> 150
Cc1noc(Cn2c(=O)c3cc(S(=O)(=O)NC4(C)CC4)ccc3n(C)c2=O)n1	5
Cn1cnnc1Cn1c(=O)c2cc(S(=O)(=O)NC3(C)CC3)ccc2n(C)c1=O	3.1
Cn1c(=O)n(CC2COC2)c(=O)c2cc(S(=O)(=O)NC3(C)CC3)ccc21	7

Continued, values first:

EC50 [µM]	SMILES
11	Cn1c(=O)c2cc(S(=O)(=O)NC3CC3)ccc2n(C)c1=O
1.6	Cn1c(=O)n(CC(=O)c2ccccc2)c(=O)c2cc(S(=O)(=O)NC3(C)CC3)ccc21
> 150	CCNS(=O)(=O)c1ccc2c(c1)c(=O)n(C)c(=O)n2C
> 50	O=C1c2ccccc2C(=O)c2cc(S(=O)(=O)NC3CCC3)ccc21
> 150	NC(=O)CCNS(=O)(=O)c1ccc2c(c1)C(=O)c1ccccc1C2=O
16	Cn1c(=O)n(Cc2ccccn2)c(=O)c2cc(S(=O)(=O)NC3(C)CC3)ccc21
0.53	Cn1c(=O)c2cc(S(=O)(=O)NC3(C)CC3)ccc2n(Cc2ccc(F)cc2)c1=O
> 150	O=C1c2ccccc2C(=O)c2cc(S(=O)(=O)NCCO)ccc21
49	CCC(C)(C)NS(=O)(=O)c1ccc2c(c1)C(=O)c1ccccc1C2=O
26	Cn1c(=O)n(Cc2ccccc2)c(=O)c2cc(S(=O)(=O)NC3(C)CC3)ccc21
50	O=c1[nH]c2ccc(S(=O)(=O)NC3CC3)cc2c2ccccc12
88	N#CCCNS(=O)(=O)c1ccc2c(c1)C(=O)c1ccccc1C2=O
2.5	Cn1c(=O)n(Cc2cccnc2)c(=O)c2cc(S(=O)(=O)NC3(C)CC3)ccc21
24	O=C1c2ccccc2C(=O)c2cc(S(=O)(=O)NCC3CC3)ccc21
1.3	Cn1c(=O)c2cc(S(=O)(=O)NC3(C)CC3)ccc2n(Cc2cccnc2)c1=O
1.4	Cn1c(=O)c2cc(S(=O)(=O)NC3(C)CC3)ccc2n(Cc2ccccc2F)c1=O
1.2	Cn1c(=O)n(Cc2ccno2)c(=O)c2cc(S(=O)(=O)NC3(C)CC3)ccc21
20	Cn1c(=O)n(Cc2ccsc2)c(=O)c2cc(S(=O)(=O)NC3(C)CC3)ccc21

EC50 [µM]	SMILES
1.7	Cn1c(=O)n(CC(=O)c2ccncc2)c(=O)c2cc(S(=O)(=O)NC3(C)CC3)ccc21
23	Cn1c(=O)n(-c2ccccc2)c(=O)c2cc(S(=O)(=O)NC3(C)CC3)ccc21
> 150	COCCNS(=O)(=O)c1ccc2c(c1)C(=O)c1ccccc1C2=O
0.45	COc1ccc(Cn2c(=O)n(C)c(=O)c3cc(S(=O)(=O)NC4(C)CC4)ccc32)cc1
> 30	CNS(=O)(=O)c1ccc2c(c1)C(=O)c1ccccc1C2=O
12	Cc1nc(-c2ccccc2)c(Cn2c(=O)c3cc(S(=O)(=O)NC4(C)CC4)ccc3n(C)c2=O)s1
2.4	Cn1c(=O)c2cc(S(=O)(=O)NC3(C)CC3)ccc2n(Cc2ccncc2)c1=O
2.3	Cn1c(=O)n(Cc2ccns2)c(=O)c2cc(S(=O)(=O)NC3(C)CC3)ccc21
6	Cn1c(=O)n(Cc2ccoc2)c(=O)c2cc(S(=O)(=O)NC3(C)CC3)ccc21
5.8	Cn1c(=O)c2cc(S(=O)(=O)NC3(C)CC3)ccc2n(Cc2ccccn2)c1=O
110	CCNS(=O)(=O)c1ccc2c(c1)C(=O)c1ccccc1C2=O
0.86	COc1cccc(Cn2c(=O)n(C)c(=O)c3cc(S(=O)(=O)NC4(C)CC4)ccc32)c1
110	Cn1c(=O)c2cc(S(=O)(=O)NC(C)(C)C)ccc2n(C)c1=O
> 150	NC(=O)CNS(=O)(=O)c1ccc2c(c1)C(=O)c1ccccc1C2=O
12	Cn1ccc(Cn2c(=O)c3cc(S(=O)(=O)NC4(C)CC4)ccc3n(C)c2=O)n1
1.6	Cn1c(=O)c2cc(S(=O)(=O)NC3(C)CC3)ccc2n(Cc2cccc(F)c2)c1=O
8	Cn1c(=O)n(Cc2ccncc2)c(=O)c2cc(S(=O)(=O)NC3(C)CC3)ccc21
3.2	COc1ccccc1Cn1c(=O)n(C)c(=O)c2cc(S(=O)(=O)NC3(C)CC3)ccc21
